Where “and” joins values, the source holds several entries; their conditions need not be identical. Equal entries are not always repeated.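 Exposure lasted 48 hours, with cells grown in 96-well plates and compounds tested at five concentrations. At the GI50, growth is halved.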 Calls of active or inactive are those of the source. No stated cut-off is given here; in the data, active = GI50 up to about 1.1 µM and inactive = higher.
Experiments:
Assay in all cases: growth of human tumour cells (NCI), 48 h
NCI-H226 = test system: NCI-H226
SF-295 = test system: SF-295
SK-MEL-28 = test system: SK-MEL-28
Malme-3M = test system: Malme-3M
SK-MEL-2 = test system: SK-MEL-2
SK-MEL-5 = test system: SK-MEL-5
M14 = test system: M14
HCT-15 = test system: HCT-15
ACHN = test system: ACHN
KM-20L2 = test system: KM-20L2
LOX IMVI = test system: LOX IMVI
NCI-H23 = test system: NCI-H23
HCT-116 = test system: HCT-116
HCC 2998 = test system: HCC 2998
COLO 205 = test system: COLO 205
SW-620 = test system: SW-620
HOP-62 = test system: HOP-62
MDA-MB-231 = test system: MDA-MB-231
PC-3 = test system: PC-3
BT-549 = test system: BT-549

Row | SMILES | GI50 (NCI-H226) | GI50 (SF-295) | GI50 (SK-MEL-28) | GI50 (Malme-3M) | GI50 (SK-MEL-2) | GI50 (SK-MEL-5) | GI50 (M14) | GI50 (HCT-15) | GI50 (ACHN) | GI50 (KM-20L2) | GI50 (LOX IMVI) | GI50 (NCI-H23) | GI50 (HCT-116) | GI50 (HCC 2998) | GI50 (COLO 205) | GI50 (SW-620) | GI50 (HOP-62) | GI50 (MDA-MB-231) | GI50 (PC-3) | GI50 (BT-549)
1 | O=C1C=CC2(O)OCC3C=C4O[C@@H]5OC6(CCCCC6)O[C@@H]5C4[C@@H]2[C@@H]13 (stereo not given in full) | 33.6 µM (inactive) | > 100 µM (inactive) | 20 µM (inactive) | 30.3 µM (inactive) | 82 µM (inactive) | 43.5 µM (inactive) | 20.5 µM (inactive) | 17 µM | 26.1 µM (inactive) | 48.3 µM (inactive) | 42.6 µM (inactive) | 23.8 µM (inactive) | 15.8 µM (inactive) | 53.2 µM (inactive) | 15.3 µM (inactive) | 27.4 µM (inactive) | > 100 µM (inactive) | – | – | –
2 | CC(CN1CC(=O)NC(=O)C1)N1CC(=O)NC(=O)C1 (stereo not given) [RAZOXANE] | 68.1 µM (inactive) | 127 µM (inactive) | 522 µM (inactive) | 52.2 µM (inactive) | 399 µM (inactive) | 198 µM (inactive) | 217 µM (inactive) | 100 µM | 242 µM (inactive) | 174 µM (inactive) | 212 µM (inactive) | 213 µM (inactive) | 104 µM (inactive) | 339 µM (inactive) | 22.5 µM (inactive) | 54.7 µM (inactive) | 54.7 µM (inactive) | 171 µM (inactive) | 66.1 µM (inactive) | 385 µM (inactive)
3 | Nc1ncnc2c1ncn2C1CC(OCc2ccccc2[N+](=O)[O-])C(CO)O1 (stereo not given) | 11.8 µM (inactive) | 15.6 µM (inactive) | 23.8 µM (inactive) | 20 µM (inactive) | 22.4 µM (inactive) | – | 15.6 µM (inactive) | 21.8 µM | 13.3 µM (inactive) | 22.2 µM (inactive) | 20.9 µM (inactive) | 23 µM (inactive) | 17.4 µM (inactive) | 28.8 µM (inactive) | 9.2 µM (inactive) | 36 µM (inactive) | 24.3 µM (inactive) | – | – | –
4 | CSc1nnc2n1-c1ccccc1SCC2 | > 100 µM (inactive) | > 100 µM (inactive) | > 100 µM (inactive) | > 100 µM (inactive) | > 100 µM (inactive) | – | > 100 µM (inactive) | > 100 µM | > 100 µM (inactive) | > 100 µM (inactive) | > 100 µM (inactive) | > 100 µM (inactive) | > 100 µM (inactive) | > 100 µM (inactive) | > 100 µM (inactive) | > 100 µM (inactive) | > 100 µM (inactive) | – | – | –
5 | COc1ccc(/C=c2/sc3n(c2=O)NC(c2ccc(Cl)cc2)NN=3)cc1 (stereo not given) | > 100 µM (inactive) | > 100 µM (inactive) | > 100 µM (inactive) | > 100 µM (inactive) | > 100 µM (inactive) | > 100 µM (inactive) | > 100 µM (inactive) | – | – | > 100 µM (inactive) | > 100 µM (inactive) | > 100 µM (inactive) | > 100 µM (inactive) | > 100 µM (inactive) | > 100 µM (inactive) | > 100 µM (inactive) | – | – | – | –
6 | Cc1nc(-c2nc(C)c(C(=O)NNC(=O)C[n+]3ccccc3)s2)sc1C(=O)NNC(=O)C[n+]1ccccc1 | 39.5 µM (inactive) | 65.6 µM (inactive) | > 100 µM (inactive) | > 100 µM (inactive) | > 100 µM (inactive) | 45.7 µM (inactive) | > 100 µM (inactive) | 56.4 µM | 59.2 µM (inactive) | > 100 µM (inactive) | 66.2 µM (inactive) | 45.7 µM (inactive) | 47 µM (inactive) | > 100 µM (inactive) | > 100 µM (inactive) | > 100 µM (inactive) | 33.1 µM (inactive) | – | – | –
7 | Cc1cc(N(CCC#N)CCC#N)ccc1/C=C1\N=C(c2cc([N+](=O)[O-])ccc2Cl)N(c2cccc(Cl)c2)C1=O | > 100 µM (inactive) | > 100 µM (inactive) | > 100 µM (inactive) | > 100 µM (inactive) | > 100 µM (inactive) | > 100 µM (inactive) | > 100 µM (inactive) | > 100 µM | > 100 µM (inactive) | > 100 µM (inactive) | – | > 100 µM (inactive) | > 100 µM (inactive) | > 100 µM (inactive) | 87.7 µM (inactive) | < 0.01 µM (active) | > 100 µM (inactive) | – | – | –
8 | COc1cc2cc[n+]3c4cc(OC)c(OC)cc4c(C)cc3c2cc1OC | > 100 µM (inactive) | > 100 µM (inactive) | > 100 µM (inactive) | > 100 µM (inactive) | > 100 µM (inactive) | > 100 µM (inactive) | > 100 µM (inactive) | > 100 µM | > 100 µM (inactive) | > 100 µM (inactive) | > 100 µM (inactive) | > 100 µM (inactive) | > 100 µM (inactive) | 61.8 µM (inactive) | 89.1 µM (inactive) | > 100 µM (inactive) | > 100 µM (inactive) | – | – | –
9 | COc1ccc(OC)c(/C=C/[N+](=O)[O-])c1 | – | 5.24 µM (inactive) and 3.46 µM (inactive) | 2.01 µM (inactive) and 3.48 µM (inactive) | – | 2.41 µM (inactive) and 4.62 µM (inactive) | 3.29 µM (inactive) and 2.33 µM (inactive) | 1.98 µM (inactive) and 3.36 µM (inactive) | 3.37 µM and 2.75 µM | 1.82 µM (inactive) and 2.21 µM (inactive) | 4.69 µM (inactive) | 1.84 µM (inactive) and 948 nM (active) | 4.02 µM (inactive) and 2.41 µM (inactive) | 1.85 µM (inactive) and 3.13 µM (inactive) | – | 2.04 µM (inactive) and 3.15 µM (inactive) | 3 µM (inactive) and 2.2 µM (inactive) | 4.93 µM (inactive) and 2.78 µM (inactive) | 1.87 µM (inactive) | – | 3.67 µM (inactive)
10 | C1=Cc2nc1c(-c1ccccc1)c1nc(c(-c3ccccc3)c3ccc([nH]3)c(-c3ccccc3)c3ccc([nH]3)c2-c2ccccc2)C=C1 [TETRAPHENYLPORPHYRIN] | > 100 µM (inactive) | > 100 µM (inactive) | > 100 µM (inactive) | > 100 µM (inactive) | > 100 µM (inactive) | > 100 µM (inactive) | > 100 µM (inactive) | > 100 µM | > 100 µM (inactive) | > 100 µM (inactive) | > 100 µM (inactive) | > 100 µM (inactive) | > 100 µM (inactive) | > 100 µM (inactive) | > 100 µM (inactive) | > 100 µM (inactive) | > 100 µM (inactive) | – | – | –
11 | CCCCCCCCCCCCCP(=O)(O)OCC | > 100 µM (inactive) | > 100 µM (inactive) | > 100 µM (inactive) | > 100 µM (inactive) | > 100 µM (inactive) | > 100 µM (inactive) | > 100 µM (inactive) | > 100 µM | > 100 µM (inactive) | > 100 µM (inactive) | > 100 µM (inactive) | > 100 µM (inactive) | > 100 µM (inactive) | > 100 µM (inactive) | > 100 µM (inactive) | > 100 µM (inactive) | > 100 µM (inactive) | – | – | –
12 | CCOC(=O)CCn1ncc(Cl)c(Cl)c1=O | 10.9 µM (inactive) | 19.5 µM (inactive) | 2.65 µM (inactive) | 14.2 µM (inactive) | 8.53 µM (inactive) | 11.8 µM (inactive) | 4.21 µM (inactive) | 2.15 µM | 17 µM (inactive) | 14.2 µM (inactive) | 8.53 µM (inactive) | 2.27 µM (inactive) | 11.9 µM (inactive) | 3.93 µM (inactive) | 9.23 µM (inactive) | 3.31 µM (inactive) | 21.4 µM (inactive) | – | – | –
13 | COC(=O)/C(=C/c1ccc(OC)cc1)NC(=O)c1ccccc1 | > 100 µM (inactive) | > 100 µM (inactive) | > 100 µM (inactive) | > 100 µM (inactive) | > 100 µM (inactive) | > 100 µM (inactive) | > 100 µM (inactive) | > 100 µM | > 100 µM (inactive) | > 100 µM (inactive) | > 100 µM (inactive) | > 100 µM (inactive) | > 100 µM (inactive) | > 100 µM (inactive) | – | > 100 µM (inactive) | – | – | – | –
14 | NCCCC1NC(=O)/C(=C(O)/C=C/C2CCC[C@@H]2CC2SCCS2)C1=O (stereo not given in full) | 71.8 µM (inactive) | > 100 µM (inactive) | > 100 µM (inactive) | > 100 µM (inactive) | > 100 µM (inactive) | > 100 µM (inactive) | > 100 µM (inactive) | – | > 100 µM (inactive) | > 100 µM (inactive) | > 100 µM (inactive) | > 100 µM (inactive) | > 100 µM (inactive) | > 100 µM (inactive) | 37.2 µM (inactive) | 57 µM (inactive) | > 100 µM (inactive) | – | – | –
15 | CNC(=O)NCCCC(NC(C)=O)C(=O)NCc1ccccc1 (stereo not given) | > 100 µM (inactive) | > 100 µM (inactive) | > 100 µM (inactive) | > 100 µM (inactive) | > 100 µM (inactive) | > 100 µM (inactive) | > 100 µM (inactive) | > 100 µM | > 100 µM (inactive) | > 100 µM (inactive) | > 100 µM (inactive) | > 100 µM (inactive) | > 100 µM (inactive) | > 100 µM (inactive) | > 100 µM (inactive) | > 100 µM (inactive) | > 100 µM (inactive) | – | – | –
16 | COc1ccc(NCc2cc(OC)c(OC)c(OC)c2)cc1 | – | 0.294 µM (active) | 0.396 µM (active) | 0.488 µM (active) | 0.466 µM (active) | 0.293 µM (active) | 0.265 µM (active) | 0.18 µM | – | 0.238 µM (active) | 0.417 µM (active) | 0.973 µM (active) | 0.408 µM (active) | 0.362 µM (active) | 0.291 µM (active) | 0.215 µM (active) | 0.468 µM (active) | 0.596 µM (active) | 0.912 µM (active) | –
